Results reported in patent publication EP1431306A1, “A mechanism for hiv-1 entry into host cells and peptides inhibiting this mechanism” (priority 2002, dated 2004).

Columns and labels:
[1] = system: HIV-1 Ba-L; experiment: Infection of PHA-stimulated PBMCs with wild type HIV-1 Ba-L (early viral transcripts by PCR); format: cell-based; details: 2 h at 37 °C, compared to 100 µM control peptide, SEQ ID NO.4 and 44: 100-50-10 µM, SEQ ID NO. 127: 1 µM-100-10 nM
Experimental: This example is illustrated in Fig. 12. […] 4 (CSFINT), 44 (RDKVKK) and the complete gp120 region SEQ ID NO.127 (CSFNITTEIRDKVKK), where the entry experiment is performed with two strains of HIV-1 on peripheral blood cells (PBMCs) derived from healthy donors. In particular, strain III B uses CXCR4 as a co-receptor (X4) and Ba-L uses CCR5 (R5).
In the graphs the percent inhibition of infection due to the peptides is shown, as compared to infection in the presence of 100 µM of a control peptide. PHA-stimulated PBMCs have been incubated with the peptides and immediately infected for 2 h at 37 °C. This incubation time is sufficient to evaluate virus entry, by detecting the presence of early viral transcripts into the cytoplasm of infected cells. The peptide concentrations are as follows: SEQ ID NO.4 and 44: 100-50-10 µM; SEQ ID NO. 127: 1 µM-100-10 nM. In Fig. 12A is represented the effect of the peptides on the basal infection of both viral strains, in Fig. 12B the effect of the peptides on the infection following incubation with rTAT 7 nM. A peptide-dependent inhibition of the basal infection by both HIV-1 strains is present already in the basal infection, reflecting the presence of TAT in the viral supernatants. […]
Infection with wild type HIV-1. […] Amplified DNA was analyzed by Southern blot hybridization with a ^32P-labeled probe, and quantified by densitometry. […]

[2] = system: TAT+/gp120-LV; experiment: Entry of TAT+/gp120-LV into C8166 cells after co-culture with U937/PINCO or U937/TAT cells; format: cell-based, HIV-1
Excerpt: This example is illustrated in Fig. 10. […] Said vector, as described in Example II, allows the expression of TAT, so that TAT is already present, as detailed described before, in the vector preparation and its amount is enhanced after the co-culture with U937/TAT cells. […] In particular, peptides with SEQ ID NO. 40 (RDKKKK), 42 (RDKKKV), 45 (KDKKEK), 47 (RDKKQK), 49 (RDKQQK), 50 (RDKVQK) revert the entry of more than 15%.
This example is illustrated in Fig. 11. […] 4 (CSFINT) and 44 (RDKVKK), where the entry experiment is performed with TAT+/gp120-LV, following 4 h co-culture of C8166 cells with U937/TAT cells. These two peptides are the ones derived from the Phage Display screening, and is here evaluated their ability of inhibit vector entry at concentrations lower than 100 µM (the concentration used in all the examples previously described). To verify if the integrity of the peptides is crucial for their activity, we have incubated the cells with said peptides in the presence of different protease inhibitors (aprotinin or a mix made by aprotinin, leupeptin, bestatin, pepstatin-A, AEBSF [4-(2-Aminoethyl) Benzenesulfonyl Fluoride Hydrochloride] and E-64 [(N-(N-(L-3-Transcarboxirane-2-Carbonyl)-L-Leucyl)-Agmatine)]). […] This example illustrates a way by which the power of said peptides can be improved.
Co-cultures and incubations with rTAT. […]
Transduction with HIV-1-derived lentivirus. Vector stocks were prepared by transient co-transfection of 293T cells with the following combinations of plasmids: pRRL.hPGK.GFP.SIN-18 + pCMV.DR8.2 + pMD.G (Naldini et al. (1996), supra) (VSV-G-LV) or pEnvHXB (Huang et al., J. Virol. 72 (1998), 8952-8960) (TAT+/gp120-LV); pRRL.hPGK.GFP.SIN-18 + pCMV.DR8.74 + pRSV-Rev ((Dull et al. (1998), supra) + pEnvHXB (TAT^-/gp120-LV). Vector concentration was determined by HIV-1 p24 Core profile ELISA following the manufacturer's instructions. The entry experiments were conducted on 10^5 cells per well of a 48-well plate in the presence of 8 µg/ml polybrene. The number of GFP-positive cells was analysed by FACS.

CSFINT [SEQ ID NO. 4]
inhibition of the basal infection [1]: ~70%
blocking of virus entry (TAT+/gp120-LV) ([2]; concentration lower than 100 µM, no protease inhibitors, 4 h co-culture with U937/TAT cells): inefficient in blocking virus entry
concentration at which the inhibitory effect is still visible ([2]; in the presence of protease inhibitors (aprotinin or mix), 4 h co-culture with U937/TAT cells): 5 µM

RDKKQQ [SEQ ID NO. 47]
reversion of TAT+/gp120-LV entry ([2]; 100 µM of the peptides, 4 h co-culture of C8166 cells with U937/PINCO or U937/TAT cells (effect potentiated by co-culture with U937/TAT)): more than 15%
